What was measured:
corn = test: Preemergent control of plant species; assay type: in vivo, Zea mays; details: Zea mays, pre-emergence, 336 h; 0.25 lb/acre; read-out: percent preemergent control
Protocol: (§1) The seeds of various species of plants were planted in beds of good agricultural soil in a greenhouse. A number of compositions of the present invention, generally in the nature of an aqueous emulsion, were applied at rates listed in the table so as to deposit a predetermined amount of active ingredients uniformly throughout the surface of the bed. Another seed bed was treated only with water to serve as a control. After treatment the seed beds were maintained for two weeks under greenhouse conditions conducive for good plant growth and watered as necessary. Control refers to the reduction in growth compared to the observed results of the same untreated species.

johnson grass = test: Preemergent control of plant species; assay type: in vivo, Sorghum halepense; details: Sorghum halepense, pre-emergence, 336 h; 0.25 lb/acre; read-out: percent preemergent control
Protocol: as §1

wheat = test: Preemergent control of plant species; assay type: in vivo, Triticum aestivum; details: Triticum aestivum, pre-emergence, 336 h; 0.25 lb/acre; read-out: percent preemergent control
Protocol: as §1

yellow foxtail = test: Preemergent control of plant species; assay type: in vivo, Setaria lutescens; details: Setaria, pre-emergence, 336 h; 0.25 lb/acre; read-out: percent preemergent control
Protocol: as §1

sorghum = test: Preemergent control of plant species; assay type: in vivo, Sorghum vulgare; details: Sorghum, pre-emergence, 336 h; 0.25 lb/acre; read-out: percent preemergent control
Protocol: as §1

rape = test: Preemergent control of plant species; assay type: in vivo, Brassica napus; details: Brassica napus, pre-emergence, 336 h; 0.25 lb/acre; read-out: percent preemergent control
Protocol: as §1

yellow nutsedge = test: Preemergent control of plant species; assay type: in vivo, Cyperus esculentus; details: Cyperus, pre-emergence, 336 h; 0.25 lb/acre; read-out: percent preemergent control
Protocol: as §1

annual morning glory = test: Preemergent control of plant species; assay type: in vivo, Ipomoea spp.; details: Ipomoea, pre-emergence, 336 h; 0.25 lb/acre; read-out: percent preemergent control
Protocol: as §1

barnyardgrass = test: Preemergent control of plant species; assay type: in vivo, Echinochloa crusgalli; details: Echinochloa crus-galli, pre-emergence, 336 h; 0.25 lb/acre; read-out: percent preemergent control
Protocol: as §1

rice = test: Preemergent control of plant species; assay type: in vivo, Oryza sativa; details: Oryza sativa, pre-emergence, 336 h; 0.25 lb/acre; read-out: percent preemergent control
Protocol: as §1

soybean = test: Preemergent control of plant species; assay type: in vivo, Glycine max.; details: Glycine max, pre-emergence, 336 h; 0.25 lb/acre; read-out: percent preemergent control
Protocol: as §1

cotton = test: Preemergent control of plant species; assay type: in vivo, Gossypium spp.; details: Gossypium hirsutum, pre-emergence, 336 h; 0.25 lb/acre; read-out: percent preemergent control
Protocol: as §1

jimsonweed = test: Preemergent control of plant species; assay type: in vivo, Datura stramonium; details: Datura stramonium, pre-emergence, 336 h; 0.25 lb/acre; read-out: percent preemergent control
Protocol: as §1

sugar beet = test: Preemergent control of plant species; assay type: in vivo, Beta saccharifera; details: Beta vulgaris, pre-emergence, 336 h; 0.25 lb/acre; read-out: percent preemergent control
Protocol: as §1

velvetleaf = test: Preemergent control of plant species; assay type: in vivo, Abutilon theophrasti; details: Abutilon theophrasti, pre-emergence, 336 h; 0.25 lb/acre; read-out: percent preemergent control
Protocol: as §1

[1] = tested on: nitrification of ammonium nitrogen; test: Suppression of nitrification of ammonium nitrogen in soil; details: 27° C.
Protocol: A sufficient volume of water was added to 20 g of the soil in a wide-mouth, screw-cap, 4-ounce, glass bottle, such that the moisture content of the mixture was made equal to the 1/3 bar tension value for that soil. The mixture was thoroughly mixed before sealing. […] Acetone slows the rate of soil nitrification and its concentration must be carefully controlled. Single samples of each test chemical were incubated for two weeks at 27° C.
The experiment comprised the following types of samples:
The soil samples were analyzed as follows: Sufficient ammonium sulfate extracting solution was added to the sample, such that the total volume of added water was 50 ml (included water added during sample preparation). The capped mixture was shaken 10 minutes to solubilize nitrate and the soil particulates were allowed to settle. The nitrate concentration in the water phase was determined with a nitrate-specific ion electrode such as Orion Model 93-07.
The non-nitrate nitrogen remaining (% NH4 -N remaining) in the soil after two weeks (performance value) was calculated as follows: [formula]

wild oats = test: Preemergent control of plant species; assay type: in vivo; details: Avena fatua, pre-emergence, 336 h; 0.25 lb/acre; read-out: percent preemergent control
Protocol: as §1

SMILES | plant injury at 280.212 g/ha (corn) [%] | pest or weed control at 280.212 g/ha (johnson grass) [%] | plant injury at 280.212 g/ha (wheat) [%] | pest or weed control at 280.212 g/ha (yellow foxtail) [%] | plant injury at 280.212 g/ha (sorghum) [%] | plant injury at 280.212 g/ha (rape) [%] | pest or weed control at 280.212 g/ha (yellow nutsedge) [%] | pest or weed control at 280.212 g/ha (annual morning glory) [%] | pest or weed control at 280.212 g/ha (barnyardgrass) [%] | plant injury at 280.212 g/ha (rice) [%] | plant injury at 280.212 g/ha (soybean) [%] | plant injury at 280.212 g/ha (cotton) [%] | pest or weed control at 280.212 g/ha (jimsonweed) [%] | plant injury at 280.212 g/ha (sugar beet) [%] | pest or weed control at 280.212 g/ha (velvetleaf) [%] | % NH4-N Remaining After 2 Weeks Incubation ([1]; 0.06 ppm) [%] | % NH4-N Remaining After 2 Weeks Incubation ([1]; 0.25 ppm) [%] | % NH4-N Remaining After 2 Weeks Incubation ([1]; 1 ppm) [%] | % NH4-N Remaining After 2 Weeks Incubation ([1]; 4 ppm) [%] | pest or weed control at 280.212 g/ha (wild oats) [%]
O=S(=O)(Nc1c(F)cccc1F)c1nc2ncccn2n1 [Compound 138] | 30 | 90 | 10 | 90 | 50 | 100 | 80 | 20 | 0 | 50 | 50 | 100 | 20 | 90 | 90 | – | – | – | – | –
COc1nc2nc(S(=O)(=O)Nc3c(C)cccc3[N+](=O)[O-])nn2cc1C [Compound 221] | 90 | 70 | 90 | 100 | 100 | 100 | 100 | 100 | 100 | 100 | 100 | 100 | 100 | 100 | 100 | – | – | – | – | –
CCCC(=O)N(c1c(F)cccc1F)S(=O)(=O)c1nc2nc(C)ccn2n1 [Compound 283] | 40 | 100 | 100 | 100 | 100 | 100 | 100 | 80 | 100 | 100 | 20 | 100 | 95 | 100 | 100 | – | – | – | – | –
CCCCCCCCCC(=O)N(c1c(F)cccc1F)S(=O)(=O)c1nc2nc(C)ccn2n1 [Compound 287] | 60 | 100 | 70 | 100 | 100 | 100 | 100 | 100 | 100 | 100 | 30 | 100 | 100 | 100 | 100 | – | – | – | – | –
Cc1ccn2nc(S(=O)(=O)Nc3c(C)cccc3Cl)nc2n1 [Compound 144] | 70 | 100 | 0 | 100 | – | 100 | 100 | 95 | 80 | 40 | 60 | 100 | 100 | 100 | 100 | 16 | 43 | 63 | 92 | 70
